# Results as given in ChEMBL document CHEMBL1127875 (Bioorg Med Chem Lett, 1994).
# Target: T1, Type-1 angiotensin II receptor (Oryctolagus cuniculus) (UniProt P34976)
# T1 sequence (whole entry): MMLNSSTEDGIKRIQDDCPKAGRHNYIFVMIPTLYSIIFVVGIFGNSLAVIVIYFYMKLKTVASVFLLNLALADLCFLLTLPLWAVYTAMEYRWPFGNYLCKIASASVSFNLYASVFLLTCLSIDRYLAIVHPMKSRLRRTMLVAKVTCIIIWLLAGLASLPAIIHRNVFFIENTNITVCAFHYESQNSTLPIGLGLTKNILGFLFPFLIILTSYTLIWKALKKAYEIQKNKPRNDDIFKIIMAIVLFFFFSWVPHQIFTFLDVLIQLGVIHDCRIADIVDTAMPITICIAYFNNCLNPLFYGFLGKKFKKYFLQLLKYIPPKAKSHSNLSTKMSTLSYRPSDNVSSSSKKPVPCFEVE
# Assay: In vitro antagonism of Angiotensin II receptor, type 1 in isolated rabbit thoracic aorta
# Type: functional, tissue-based
# Settings: not given
row,SMILES,Kb [µM]
1,CCCCCC[C@H](C(=O)N1C[C@H](Oc2ccc(CC(=O)O)cc2)C[C@@H]1C(=O)O)n1cnc(NC(=O)c2ccccc2S(=O)(=O)O)c1,0.191
2,CCCCCC[C@H](C(=O)N1C[C@H](Oc2ccc(CC(=O)O)cc2)C[C@H]1C(=O)O)n1cnc(NC(=O)c2ccccc2S(=O)(=O)O)c1,0.503
3,CCCCCC[C@H](C(=O)N1C[C@@H](Oc2ccc(CC(=O)O)cc2)C[C@@H]1C(=O)O)n1cnc(NC(=O)c2ccccc2S(=O)(=O)O)c1,0.156
4,CCCCCC[C@@H](C(=O)N1C[C@H](Oc2ccc(CC(=O)O)cc2)C[C@@H]1C(=O)O)n1cnc(NC(=O)c2ccccc2S(=O)(=O)O)c1,0.489

# Results, then the molecule that gave them:
row,Kb [µM],SMILES
1,0.0045,CCCCCC[C@@H](C(=O)N1C[C@@H](Oc2ccc(CC(=O)O)cc2)C[C@H]1C(=O)O)n1cnc(NC(=O)c2ccccc2S(=O)(=O)O)c1
2,0.00012,CCCCCC[C@H](C(=O)N1C[C@@H](Oc2ccc(CC(=O)O)cc2)C[C@H]1C(=O)O)n1cnc(NC(=O)c2ccccc2S(=O)(=O)O)c1
3,0.761,CCCCCC[C@@H](C(=O)N1C[C@@H](Oc2ccc(CC(=O)O)cc2)C[C@@H]1C(=O)O)n1cnc(NC(=O)c2ccccc2S(=O)(=O)O)c1
4,0.555,CCCCCC[C@@H](C(=O)N1C[C@H](Oc2ccc(CC(=O)O)cc2)C[C@H]1C(=O)O)n1cnc(NC(=O)c2ccccc2S(=O)(=O)O)c1

# Species on record: Oryctolagus cuniculus
# Assay: pA2 value determined by their ability to block AngII induced contractile responses in rabbit aorta strips
# Type: functional
# Settings: read-out: pA2 (converted)
row,SMILES,Kb [µM]
1,CCCCCCC(C(=O)O)n1cnc(NC(=O)c2ccccc2C2N=NN=N2)c1 (stereo unspecified),0.1
2,CCCCCCC(C(=O)O)n1cnc(NC(=O)c2ccccc2C(=O)O)c1 (stereo unspecified),0.1
3,CCCCCCC(C(=O)O)n1cnc(NC(=O)c2cccc(O)c2C(=O)O)c1 (stereo unspecified),0.1
